The results in this text go back to patent US20030139352A1, “Inhibitors of ABC drug transporters in cancer cells” (priority 2001, published 2003).

The target in one data set is human PGP (Homo sapiens, UniProt P08183). The following applies: 15B-J vs CLA monolayers.
In data set [1] the target is human PGP membranes (PGP-associated ATPase) (Homo sapiens, UniProt P08183). The following applies: for ATPase Activity, basal activity subtracted: human, 20 min. The protocol:
The DMSO concentration (1.0%) was constant for all conditions within the experiment.
The test substances were incubated in the PGP membranes and supplemented with MgATP, with and without sodium orthovanadate present. Orthovanadate inhibits PGP by trapping MgADP in the nucleotide binding site. Thus, the ATPase activity measured in the presence of orthovanadate represents non-PGP ATPase activity and was subtracted from the activity generated without orthovanadate to yield ATPase activity.
(§1) ATPase assays were conducted in 96-well microtiter plates. A 0.06 mL reaction mixture containing 40 μg PGP membranes, test substance, and 4 mM MgATP, in buffer containing 50 mM Tris-MES, 2 mM EGTA, 50 mM KCl, 2 mM dithiothreitol, and 5 mM sodium azide, plus organic solvent was incubated at 37° C. for 20 minutes. […] Identical reaction mixtures containing 100 μM sodium orthovanadate were assayed in parallel. The reactions were stopped by the addition of 30 μl of 10% SDS+Antifoam A. The incubations were followed with addition of 200 μl of 35 mM Ammonium Molybdate in 15 mM Zinc Acetate: 10% Ascorbic Acid (1:4) and incubated for an additional 20 minutes at 37° C. Additionally, 0.06 mL aliquots of potassium phosphate standards prepared in the buffer described above, were incubated in the plates containing the test and control substances, with SDS and detection reagent added. The liberation of inorganic phosphate was detected by its absorbance at 800 nm and quantitated by comparing the absorbance to a phosphate standard curve. The concentration dependence of the PGP was analyzed for evidence of saturation of PGP-associated ATPase activity, and apparent kinetic parameters were calculated by non-linear regression.
as §1, with “plates.” for “plates. A 0.06 mL reaction mixture containing 40 μg PGP membranes, test substance, and 4 mM MgATP, in buffer containing 50 mM Tris-MES, 2 mM EGTA, 50 mM KCl, 2 mM dithiothreitol, and 5 mM sodium azide, plus organic solvent was incubated at 37° C. for 20 minutes.”, “activity.” for “activity, and apparent kinetic parameters were calculated by non-linear regression.”
as §1, with “plates.” for “plates. A 0.06 mL reaction mixture containing 40 μg PGP membranes, test substance, and 4 mM MgATP, in buffer containing 50 mM Tris-MES, 2 mM EGTA, 50 mM KCl, 2 mM dithiothreitol, and 5 mM sodium azide, plus organic solvent was incubated at 37° C. for 20 minutes.”

Where two headings read alike, the source gives them in different places.

Chain of human PGP membranes (PGP-associated ATPase) (P08183 whole entry): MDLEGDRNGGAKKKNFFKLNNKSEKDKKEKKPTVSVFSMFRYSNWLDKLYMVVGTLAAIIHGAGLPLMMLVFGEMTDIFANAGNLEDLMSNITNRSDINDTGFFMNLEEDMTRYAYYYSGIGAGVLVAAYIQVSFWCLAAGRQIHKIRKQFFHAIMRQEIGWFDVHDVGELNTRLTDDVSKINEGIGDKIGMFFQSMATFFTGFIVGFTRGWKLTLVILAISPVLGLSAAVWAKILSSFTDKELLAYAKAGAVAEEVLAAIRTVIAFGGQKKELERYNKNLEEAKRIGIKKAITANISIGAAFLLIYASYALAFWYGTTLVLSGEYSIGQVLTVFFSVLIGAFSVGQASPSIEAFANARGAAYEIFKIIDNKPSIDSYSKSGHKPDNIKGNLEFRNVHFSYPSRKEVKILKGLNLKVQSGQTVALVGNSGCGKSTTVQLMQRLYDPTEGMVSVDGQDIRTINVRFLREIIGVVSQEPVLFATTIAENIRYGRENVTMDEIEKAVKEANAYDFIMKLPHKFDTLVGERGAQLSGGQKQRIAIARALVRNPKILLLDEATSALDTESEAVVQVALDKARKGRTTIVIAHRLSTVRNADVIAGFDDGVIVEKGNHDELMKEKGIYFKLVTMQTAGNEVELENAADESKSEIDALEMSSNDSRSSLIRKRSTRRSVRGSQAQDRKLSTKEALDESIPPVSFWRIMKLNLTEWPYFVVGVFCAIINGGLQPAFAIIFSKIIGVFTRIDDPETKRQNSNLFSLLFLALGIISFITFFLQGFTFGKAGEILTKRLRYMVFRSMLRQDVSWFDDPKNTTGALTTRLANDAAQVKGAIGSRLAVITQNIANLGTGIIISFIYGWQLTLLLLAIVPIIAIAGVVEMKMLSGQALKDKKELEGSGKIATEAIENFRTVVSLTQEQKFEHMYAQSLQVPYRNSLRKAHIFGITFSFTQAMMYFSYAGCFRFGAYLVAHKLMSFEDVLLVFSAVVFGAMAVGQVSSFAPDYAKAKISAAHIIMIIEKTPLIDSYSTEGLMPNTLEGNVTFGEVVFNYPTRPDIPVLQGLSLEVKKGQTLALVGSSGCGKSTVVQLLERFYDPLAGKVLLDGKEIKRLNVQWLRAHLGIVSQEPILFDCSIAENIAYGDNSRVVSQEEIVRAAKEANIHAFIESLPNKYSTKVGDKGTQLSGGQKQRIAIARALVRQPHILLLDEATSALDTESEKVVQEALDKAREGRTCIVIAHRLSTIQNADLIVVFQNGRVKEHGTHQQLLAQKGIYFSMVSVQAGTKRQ
Chain of human PGP (P08183 whole entry): as above

For `CC(=O)O[C@H]1C(=O)[C@@]2(C)[C@H]([C@H](OC(=O)c3ccccc3)[C@]3(O)C[C@H](OC(=O)[C@H](O)[C@@H](NC(=O)c4ccccc4)c4ccccc4)C(C)=C1C3(C)C)[C@]1(OC(C)=O)CO[C@@H]1C[C@@H]2O` [Taxol, taxol], the “transport by human PGP (in words)” value on human PGP was “significantly transported by human PGP”. Also, the “effect on PGP-associated ATPase activity (in words)” value in data set [1] was “stimulates PGP-associated ATPase activity in a dose dependent manner”. Further, the “ATPase Activity, basal activity subtracted” value is -0.3 nmol/mg/min in data set [1] (0.007 μM); -0.4 nmol/mg/min in data set [1] (0.01 μM); -0.9 nmol/mg/min in data set [1] (0.03 μM); -0.9 nmol/mg/min in data set [1] (0.05 μM); -1.6 nmol/mg/min in data set [1] (0.1 μM); 2.5 nmol/mg/min in data set [1] (0.42 μM). The “ATPase Activity, basal activity subtracted” value in data set [1] (1.67 μM) stood at 11.1 nmol/mg/min; in data set [1] (3.33 μM), 12.8 nmol/mg/min; in data set [1] (6.67 μM), 14.4 nmol/mg/min.
